Results reported in patent publication US9529005B2, “Modulating bacterial MAM polypeptides in pathogenic disease” (priority 2011, dated 2016).
Values after ≈ are worked out from the molar mass of the structure shown. Where two headings read alike, the source gives them in different places.

How the values were obtained:
Assay in all cases: Antimicrobial susceptibility testing (MIC), BD Phoenix Automated Microbiology System; for interpretation of the result: key: R, resistant; I, intermediate; S, susceptible; R*: *As a rule, when ESBL is detected, an interpretation of susceptible or intermediate for penicillins, cephalosporins and aztreonam is reported as resistant
Assay type in all cases: cell-based
[1] = tested on: Klebsiella ssp.; details: for MIC: Klebsiella; for interpretation of the result: key: R, resistant; I, intermediate; S, susceptible; R*: *As a rule, when ESBL is detected, an interpretation of susceptible or intermediate for penicillins, cephalosporins and aztreonam is reported as resistant
[2] = tested on: Acinetobacter baumannii; details: for MIC: Acinetobacter baumannii; for interpretation of the result: key: R, resistant; I, intermediate; S, susceptible; R*: *As a rule, when ESBL is detected, an interpretation of susceptible or intermediate for penicillins, cephalosporins and aztreonam is reported as resistant
[3] = tested on: Escherichia coli; details: for MIC: Escherichia coli; for interpretation of the result: key: R, resistant; I, intermediate; S, susceptible; R*: *As a rule, when ESBL is detected, an interpretation of susceptible or intermediate for penicillins, cephalosporins and aztreonam is reported as resistant
[4] = tested on: Pseudomonas aeruginosa; details: for MIC: Pseudomonas aeruginosa
[5] = Acinetobacter baumannii isolate 1
[6] = Acinetobacter baumannii isolate 2
[7] = Acinetobacter baumannii isolate 3
[8] = Acinetobacter baumannii isolate 4
[9] = Acinetobacter baumannii isolate 5
[10] = Pseudomonas aeruginosa isolate 1
[11] = Pseudomonas aeruginosa isolate 2
[12] = Pseudomonas aeruginosa isolate 3
[13] = Pseudomonas aeruginosa isolate 4
[14] = Pseudomonas aeruginosa isolate 5

| SMILES | interpretation of the result ([1]; Klebsiella ssp. isolate 1) | interpretation of the result ([1]; Klebsiella ssp. isolate 2) | interpretation of the result ([1]; Klebsiella ssp. isolate 3) | interpretation of the result ([1]; Klebsiella ssp. isolate 4) | interpretation of the result ([1]; Klebsiella ssp. isolate 5) | interpretation of the result [2, 5] | interpretation of the result [2, 6] | interpretation of the result [2, 7] | interpretation of the result [2, 8] | interpretation of the result [2, 9] | interpretation of the result ([3]; Escherichia coli isolate 1) | interpretation of the result ([3]; Escherichia coli isolate 2) | interpretation of the result ([3]; Escherichia coli isolate 3) | interpretation of the result ([3]; Escherichia coli isolate 4) | interpretation of the result ([3]; Escherichia coli isolate 5) | interpretation of the result [4, 10] | interpretation of the result [4, 11] | interpretation of the result [4, 12] | interpretation of the result [4, 13] | interpretation of the result [4, 14] | further results |
| --- | --- | --- | --- | --- | --- | --- | --- | --- | --- | --- | --- | --- | --- | --- | --- | --- | --- | --- | --- | --- | --- |
| CN(C)[C@@H]1C(O)=C(C(N)=O)C(=O)[C@@]2(O)C(O)=C3C(=O)c4c(O)cccc4[C@@](C)(O)[C@H]3C[C@@H]12 [Tet., Tetracycline] | R | R | R | R | R | R | S | R | R | I | R | S | R | R | R | R | R | R | R | R | MIC ([1]; Klebsiella ssp. isolate 1, read-out: minimal inhibiting concentration): > 8 µg/mL; MIC ([1]; Klebsiella ssp. isolate 2, read-out: minimal inhibiting concentration): > 8 µg/mL; MIC ([1]; Klebsiella ssp. isolate 3, read-out: minimal inhibiting concentration): > 8 µg/mL; MIC ([1]; Klebsiella ssp. isolate 4, read-out: minimal inhibiting concentration): > 8 µg/mL; MIC ([1]; Klebsiella ssp. isolate 5, read-out: minimal inhibiting concentration): > 8 µg/mL; MIC ([2]; Acinetobacter baumannii isolate 1, read-out: minimal inhibiting concentration): > 8 µg/mL; MIC ([2]; Acinetobacter baumannii isolate 2, read-out: minimal inhibiting concentration): 4 µg/mL (≈ 9 µM); MIC ([2]; Acinetobacter baumannii isolate 3, read-out: minimal inhibiting concentration): > 8 µg/mL; MIC ([2]; Acinetobacter baumannii isolate 4, read-out: minimal inhibiting concentration): > 8 µg/mL; MIC ([2]; Acinetobacter baumannii isolate 5, read-out: minimal inhibiting concentration): 8 µg/mL (≈ 18 µM); MIC ([3]; Escherichia coli isolate 1, read-out: minimal inhibiting concentration): > 8 µg/mL; MIC ([3]; Escherichia coli isolate 2, read-out: minimal inhibiting concentration): ≤ 2 µg/mL; MIC ([3]; Escherichia coli isolate 3, read-out: minimal inhibiting concentration): > 8 µg/mL; MIC ([3]; Escherichia coli isolate 4, read-out: minimal inhibiting concentration): > 8 µg/mL; MIC ([3]; Escherichia coli isolate 5, read-out: minimal inhibiting concentration): > 8 µg/mL; MIC ([4]; Pseudomonas aeruginosa isolate 1, read-out: minimal inhibiting concentration): > 8 µg/mL; MIC ([4]; Pseudomonas aeruginosa isolate 2, read-out: minimal inhibiting concentration): > 8 µg/mL; MIC ([4]; Pseudomonas aeruginosa isolate 3, read-out: minimal inhibiting concentration): > 8 µg/mL; MIC ([4]; Pseudomonas aeruginosa isolate 4, read-out: minimal inhibiting concentration): > 8 µg/mL; MIC ([4]; Pseudomonas aeruginosa isolate 5, read-out: minimal inhibiting concentration): > 8 µg/mL |
| C[C@H]1COc2c(N3CCN(C)CC3)c(F)cc3c(=O)c(C(=O)O)cn1c23 [Lev., Levofloxacin] | R | S | S | S | S | R | R | I | R | R | R | R | R | R | R | R | R | R | R | R | MIC ([1]; read-out: minimal inhibiting concentration, Klebsiella ssp. isolate 1): > 4 µg/mL; MIC ([1]; read-out: minimal inhibiting concentration, Klebsiella ssp. isolate 2): ≤ 1 µg/mL; MIC ([1]; read-out: minimal inhibiting concentration, Klebsiella ssp. isolate 3): ≤ 1 µg/mL; MIC ([1]; read-out: minimal inhibiting concentration, Klebsiella ssp. isolate 4): ≤ 1 µg/mL; MIC ([1]; read-out: minimal inhibiting concentration, Klebsiella ssp. isolate 5): ≤ 1 µg/mL; MIC ([2]; read-out: minimal inhibiting concentration, Acinetobacter baumannii isolate 1): > 4 µg/mL; MIC ([2]; read-out: minimal inhibiting concentration, Acinetobacter baumannii isolate 2): > 4 µg/mL; MIC ([2]; read-out: minimal inhibiting concentration, Acinetobacter baumannii isolate 3): 4 µg/mL (≈ 11.1 µM); MIC ([2]; read-out: minimal inhibiting concentration, Acinetobacter baumannii isolate 4): > 4 µg/mL; MIC ([2]; read-out: minimal inhibiting concentration, Acinetobacter baumannii isolate 5): > 4 µg/mL; MIC ([3]; read-out: minimal inhibiting concentration, Escherichia coli isolate 1): > 4 µg/mL; MIC ([3]; read-out: minimal inhibiting concentration, Escherichia coli isolate 2): > 4 µg/mL; MIC ([3]; read-out: minimal inhibiting concentration, Escherichia coli isolate 3): > 4 µg/mL; MIC ([3]; read-out: minimal inhibiting concentration, Escherichia coli isolate 4): > 4 µg/mL; MIC ([3]; read-out: minimal inhibiting concentration, Escherichia coli isolate 5): > 4 µg/mL; MIC ([4]; read-out: minimal inhibiting concentration, Pseudomonas aeruginosa isolate 1): > 4 µg/mL; MIC ([4]; read-out: minimal inhibiting concentration, Pseudomonas aeruginosa isolate 2): > 4 µg/mL; MIC ([4]; read-out: minimal inhibiting concentration, Pseudomonas aeruginosa isolate 3): > 4 µg/mL; MIC ([4]; read-out: minimal inhibiting concentration, Pseudomonas aeruginosa isolate 4): > 4 µg/mL; MIC ([4]; read-out: minimal inhibiting concentration, Pseudomonas aeruginosa isolate 5): > 4 µg/mL |
| NCC[C@H](O)C(=O)N[C@@H]1C[C@H](N)[C@@H](O[C@H]2O[C@H](CN)[C@@H](O)[C@H](O)[C@H]2O)[C@H](O)[C@H]1O[C@H]1O[C@H](CO)[C@@H](O)[C@H](N)[C@H]1O [Amik., Amikacin] | S | S | S | S | R | R | R | I | R | R | S | S | S | S | S | S | S | S | I | I | minimal inhibiting concentration ([1]; Klebsiella ssp. isolate 1): ≤ 8 µg/mL; minimal inhibiting concentration ([1]; Klebsiella ssp. isolate 2): ≤ 8 µg/mL; minimal inhibiting concentration ([1]; Klebsiella ssp. isolate 3): ≤ 8 µg/mL; minimal inhibiting concentration ([1]; Klebsiella ssp. isolate 4): ≤ 8 µg/mL; minimal inhibiting concentration ([1]; Klebsiella ssp. isolate 5): > 32 µg/mL; minimal inhibiting concentration [2, 5]: > 32 µg/mL; minimal inhibiting concentration [2, 6]: > 32 µg/mL; minimal inhibiting concentration [2, 7]: 32 µg/mL (≈ 54.6 µM); minimal inhibiting concentration [2, 8]: > 32 µg/mL; minimal inhibiting concentration [2, 9]: > 32 µg/mL; minimal inhibiting concentration ([3]; Escherichia coli isolate 1): ≤ 8 µg/mL; minimal inhibiting concentration ([3]; Escherichia coli isolate 2): ≤ 8 µg/mL; minimal inhibiting concentration ([3]; Escherichia coli isolate 3): ≤ 8 µg/mL; minimal inhibiting concentration ([3]; Escherichia coli isolate 4): ≤ 8 µg/mL; minimal inhibiting concentration ([3]; Escherichia coli isolate 5): ≤ 8 µg/mL; minimal inhibiting concentration [4, 10]: ≤ 8 µg/mL; minimal inhibiting concentration [4, 11]: 16 µg/mL (≈ 27.3 µM); minimal inhibiting concentration [4, 12]: 16 µg/mL (≈ 27.3 µM); minimal inhibiting concentration [4, 13]: 32 µg/mL (≈ 54.6 µM); minimal inhibiting concentration [4, 14]: 32 µg/mL (≈ 54.6 µM) |
